Measured values from ChEMBL document CHEMBL1201862, “PubChem BioAssay data set” (2004).
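How tested: cells in 96-well plates exposed to compound for 48 hours at five concentrations. GI50: concentration for 50% inhibition of growth.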 The source made the active and inactive calls. Cut-off read from the data, not from the text of the source: active = GI50 up to about 1.1 µM and inactive = higher.

What was measured:
Experiment in all cases: DTP human tumour cell line panel, 48 h
OVCAR-3 = tested on: OVCAR-3
RPMI-8226 = tested on: RPMI-8226
UACC-257 = tested on: UACC-257
NCI-H226 = tested on: NCI-H226
NCI-H23 = tested on: NCI-H23
Malme-3M = tested on: Malme-3M
CAKI-1 = tested on: CAKI-1
HCT-116 = tested on: HCT-116
IGROV-1 = tested on: IGROV-1
SF-268 = tested on: SF-268
SW-620 = tested on: SW-620
SN12C = tested on: SN12C
EKVX = tested on: EKVX
UO-31 = tested on: UO-31
RXF 393 = tested on: RXF 393

SMILES	GI50 (OVCAR-3)	GI50 (RPMI-8226)	GI50 (UACC-257)	GI50 (NCI-H226)	GI50 (NCI-H23)	GI50 (Malme-3M)	GI50 (CAKI-1)	GI50 (HCT-116)	GI50 (IGROV-1)	GI50 (SF-268)	GI50 (SW-620)	GI50 (SN12C)	GI50 (EKVX)	GI50 (UO-31)	GI50 (RXF 393)
O=C1Cc2ccccc2N1/N=C\c1ccc(O)cc1	> 100 µM (inactive)	58.1 µM (inactive)	47 µM (inactive)	> 100 µM (inactive)	71.1 µM (inactive)	> 100 µM (inactive)	> 100 µM (inactive)	> 100 µM (inactive)	> 100 µM (inactive)	50.6 µM (inactive)	> 100 µM (inactive)	> 100 µM (inactive)	82.2 µM (inactive)	45.1 µM (inactive)	–
C[C@@]1(Cc2ccccc2)C(=O)N2[C@@H](CO)C(c3ccccc3)O[C@]2(C)c2ccccc21 (some centres undefined)	> 100 µM (inactive)	76 µM (inactive)	–	> 100 µM (inactive)	> 100 µM (inactive)	–	26.2 µM (inactive)	> 100 µM (inactive)	> 100 µM (inactive)	> 100 µM (inactive)	91.6 µM (inactive)	–	> 100 µM (inactive)	> 100 µM (inactive)	> 100 µM (inactive)
CC(=O)OCC(=O)[C@@]1(O)CC[C@H]2[C@@H]3C[C@H](C)C4=CC(=O)C=C[C@]4(C)[C@@]3(F)[C@@H](O)C[C@@]21C	> 100 µM (inactive)	23.7 µM (inactive)	> 100 µM (inactive)	32.5 µM (inactive)	> 100 µM (inactive)	> 100 µM (inactive)	> 100 µM (inactive)	> 100 µM (inactive)	> 100 µM (inactive)	> 100 µM (inactive)	> 100 µM (inactive)	–	> 100 µM (inactive)	81.1 µM (inactive)	> 100 µM (inactive)
COC(=O)C(C)Oc1ccc(O)cc1 (centres undefined)	> 100 µM (inactive)	> 100 µM (inactive)	> 100 µM (inactive)	> 100 µM (inactive)	> 100 µM (inactive)	> 100 µM (inactive)	> 100 µM (inactive)	20.9 µM (inactive)	> 100 µM (inactive)	20.6 µM (inactive)	34.9 µM (inactive)	> 100 µM (inactive)	> 100 µM (inactive)	> 100 µM (inactive)	–
CC(C)=Cc1cc(C(=O)Nc2ccc(Cl)c(Cl)c2)nc(N)n1	> 100 µM (inactive)	> 100 µM (inactive)	> 100 µM (inactive)	> 100 µM (inactive)	> 100 µM (inactive)	> 100 µM (inactive)	> 100 µM (inactive)	> 100 µM (inactive)	> 100 µM (inactive)	> 100 µM (inactive)	> 100 µM (inactive)	> 100 µM (inactive)	> 100 µM (inactive)	> 100 µM (inactive)	> 100 µM (inactive)
O=C(OCc1ccccc1)N1N=NC2C3CC(OCc4ccccc4)(OCc4ccccc4)C(O3)C21 (centres undefined)	16.6 µM (inactive)	7.24 µM (inactive)	14 µM (inactive)	12.6 µM (inactive)	12.8 µM (inactive)	16.1 µM (inactive)	25.7 µM (inactive)	–	49.5 µM (inactive)	22.4 µM (inactive)	20.6 µM (inactive)	41.9 µM (inactive)	–	4.65 µM (inactive)	9.64 µM (inactive)
CCOC(=O)C(=O)C=P(c1ccccc1)(c1ccccc1)c1ccccc1	> 100 µM (inactive)	> 100 µM (inactive)	> 100 µM (inactive)	> 100 µM (inactive)	> 100 µM (inactive)	> 100 µM (inactive)	> 100 µM (inactive)	> 100 µM (inactive)	> 100 µM (inactive)	> 100 µM (inactive)	> 100 µM (inactive)	> 100 µM (inactive)	> 100 µM (inactive)	> 100 µM (inactive)	> 100 µM (inactive)
O=C1c2ccccc2C(=O)c2c1ccc(O)c2O [ATHRAQUINONES A]	32.9 µM (inactive)	36.5 µM (inactive)	71.1 µM (inactive)	94.8 µM (inactive)	41.6 µM (inactive)	–	39.5 µM (inactive)	32.4 µM (inactive)	35.6 µM (inactive)	32 µM (inactive)	37.9 µM (inactive)	42.3 µM (inactive)	26.9 µM (inactive)	36.6 µM (inactive)	40.8 µM (inactive)
COC[n+]1cc2cc(OC)c(OC)cc2c2ccc3cc(OC)c(OC)cc3c21	> 100 µM (inactive)	> 100 µM (inactive)	> 100 µM (inactive)	> 100 µM (inactive)	> 100 µM (inactive)	> 100 µM (inactive)	> 100 µM (inactive)	> 100 µM (inactive)	> 100 µM (inactive)	> 100 µM (inactive)	> 100 µM (inactive)	> 100 µM (inactive)	> 100 µM (inactive)	> 100 µM (inactive)	> 100 µM (inactive)
COc1ccc(OC)c(N2CC(N)C2=O)c1 (centres undefined)	> 100 µM (inactive)	> 100 µM (inactive)	> 100 µM (inactive)	> 100 µM (inactive)	> 100 µM (inactive)	> 100 µM (inactive)	–	> 100 µM (inactive)	> 100 µM (inactive)	> 100 µM (inactive)	> 100 µM (inactive)	> 100 µM (inactive)	> 100 µM (inactive)	> 100 µM (inactive)	> 100 µM (inactive)
O=[PH](O)c1ccccn1	> 100 µM (inactive)	> 100 µM (inactive)	> 100 µM (inactive)	> 100 µM (inactive)	> 100 µM (inactive)	> 100 µM (inactive)	> 100 µM (inactive)	> 100 µM (inactive)	> 100 µM (inactive)	> 100 µM (inactive)	> 100 µM (inactive)	> 100 µM (inactive)	> 100 µM (inactive)	> 100 µM (inactive)	> 100 µM (inactive)
O=C1C2c3[nH]c4ccccc4c3C3CCCC3C2C(=O)N1c1ccccc1 (centres undefined)	> 100 µM (inactive)	> 100 µM (inactive)	–	–	> 100 µM (inactive)	> 100 µM (inactive)	–	–	> 100 µM (inactive)	> 100 µM (inactive)	74.1 µM (inactive)	> 100 µM (inactive)	> 100 µM (inactive)	–	> 100 µM (inactive)
CNc1nc(N)cc(O)n1	> 100 µM (inactive)	> 100 µM (inactive)	> 100 µM (inactive)	> 100 µM (inactive)	> 100 µM (inactive)	> 100 µM (inactive)	> 100 µM (inactive)	> 100 µM (inactive)	> 100 µM (inactive)	> 100 µM (inactive)	> 100 µM (inactive)	> 100 µM (inactive)	> 100 µM (inactive)	> 100 µM (inactive)	–
CC(C)COC(=O)c1ccc(/N=C\c2ccc(/C=N/c3ccc(C(=O)OCC(C)C)cc3)cc2)cc1	> 100 µM (inactive)	> 100 µM (inactive)	> 100 µM (inactive)	> 100 µM (inactive)	96.6 µM (inactive)	> 100 µM (inactive)	> 100 µM (inactive)	–	> 100 µM (inactive)	> 100 µM (inactive)	> 100 µM (inactive)	> 100 µM (inactive)	–	23.9 µM (inactive)	–
O=C(CCc1ccccc1)On1nnc2ccccc2c1=O	> 100 µM (inactive)	–	> 100 µM (inactive)	> 100 µM (inactive)	> 100 µM (inactive)	> 100 µM (inactive)	30.8 µM (inactive)	> 100 µM (inactive)	> 100 µM (inactive)	> 100 µM (inactive)	> 100 µM (inactive)	> 100 µM (inactive)	> 100 µM (inactive)	> 100 µM (inactive)	> 100 µM (inactive)
O=C(/C=C/c1ccccc1O)c1ccc([N+](=O)[O-])cc1	12.4 µM (inactive)	–	53.3 µM (inactive)	18 µM (inactive)	11.3 µM (inactive)	44 µM (inactive)	18.5 µM (inactive)	15.6 µM (inactive)	12.9 µM (inactive)	18 µM (inactive)	16.6 µM (inactive)	15.5 µM (inactive)	10.6 µM (inactive)	19.1 µM (inactive)	11 µM (inactive)
CN(C)CC(/C(Cc1ccccc1)=N\NC(=O)c1ccncc1)c1ccccc1 (centres undefined)	20.1 µM (inactive)	16.4 µM (inactive)	32.3 µM (inactive)	71.6 µM (inactive)	46.8 µM (inactive)	28.8 µM (inactive)	44.3 µM (inactive)	–	47.6 µM (inactive)	33.4 µM (inactive)	35.8 µM (inactive)	46.2 µM (inactive)	23.6 µM (inactive)	–	28.7 µM (inactive)
COc1cc([C@@H]2c3cc4c(cc3[C@@H](OC(=O)c3ccccc3)C3COC(=O)[C@@H]32)OCO4)cc(OC)c1O (some centres undefined)	–	0.012 µM (active)	–	< 0.01 µM (active)	0.0148 µM (active)	< 0.01 µM (active)	< 0.01 µM (active)	< 0.01 µM (active)	0.0123 µM (active)	0.0289 µM (active)	< 0.01 µM (active)	0.0286 µM (active)	–	0.132 µM (active)	0.0101 µM (active)
Nc1nc(Cl)cc(NCCCCCCCCCCNc2cc(Cl)nc(N)n2)n1	1.82 µM (inactive)	2.18 µM (inactive)	1.05 µM (active)	1.99 µM (inactive)	0.415 µM (active)	–	25.6 µM (inactive)	0.196 µM (active)	22.2 µM (inactive)	3.26 µM (inactive)	35.6 µM (inactive)	71.9 µM (inactive)	4 µM (inactive)	11.3 µM (inactive)	13.9 µM (inactive)
COc1cc(/C=C(\NC(=O)c2ccccc2)c2nc3cncnc3[nH]2)cc(OC)c1OC	> 100 µM (inactive)	–	–	–	> 100 µM (inactive)	> 100 µM (inactive)	> 100 µM (inactive)	–	> 100 µM (inactive)	> 100 µM (inactive)	> 100 µM (inactive)	> 100 µM (inactive)	> 100 µM (inactive)	57.7 µM (inactive)	> 100 µM (inactive)
